Assay results: patent US20240180930A1, “CARBONIC ANHYDRASE 1 (CA1) INHIBITORS FOR THE TREATMENT OR PREVENTION OF MYELOPROLIFERATIVE DISORDERS AND OTHER HEMATOPOIETIC MALIGNANCIES, AND AS BIOMARKER OF MYELOPROLIFERATIVE DISORDERS AND OTHER HEMATOPOIETIC MALIGNANCIES” (COMMISSARIAT A L'ENERGIE ATOMIQUE ET AUX ENERGIES …, priority 2021, published 2024)

Tests used:
[1] = tested on: mice transplanted with JAK2^V617F BM cells; test: Single irradiated-leg mouse model of Polycythemia Vera, pharmacologic treatment; assay type: in vivo
Description: Mice. The conditional flexed Jak2^V617F KI mice (Hasan et al.; Blood 122, 1464-1477; 2013) were crossed with VavCre transgenic (TG) mice (Croker et al., SOCS3 Is a Critical Physiological Negative Regulator of G-CSF Signaling and Emergency Granulopoiesis. Immunity 20, 153-165 (2004)) to express the mutant Jak2. To easily evaluate allele burden in kinetic experiments, Jak2^V617F KI/VavCre mice were also crossed with UbiGFP TG mice in Gustave Roussy' animal facilities. For one-leg transplantation, F1 crossed B6.SJL/BoyJ (CD45.1)×C57BL/6J (CD45.2) mice were used as recipient mice. All mice were housed in a specific pathogen-free section at an animal facility of CEA/DRF/IBFJ/iRCM according to the institutional guidelines and French Ministry of Agriculture's regulations.
One leg irradiation and transplantation. Recipient mice were anesthetized with ketamine-xylazine and their leg was fixed on a tray with only the leg left towards the opposite side to their body. The tray was put in the radiation field of a GSRD1 radiation equipment. The mouse body was shielded from irradiation with lead plates and the leg was irradiated at 2×5 Gy with an interval of 17 h. Bone marrow (BM) cells (1×10^7) were intravenously transplanted into the irradiated mice 7 hours after the second irradiation. For barcode and shRNA experiments, 10,000 transduced Lin^−Scal^+cKit^+ (LSK) hematopoietic cells were intrafemorally transplanted into irradiated leg under Isoflurane anesthetic.
Blood analysis. Blood was collected and analyzed through a hemocytometer (CD3700, ABBOTT). The rest of blood was subjected to hemolysis by using an ammonium chloride solution ([…]). The hemolyzed blood were stained with antibodies against CD45.1 (A20) and CD45.2 (104) and analyzed through flow cytometry to examine blood chimerism.
BM cells (femur and tibia) of irradiated leg and of non-irradiated leg were harvested by flushing with 1 mL of PBS. After centrifugation, BM supernatants were collected and kept at -80° C. with anti-protease (ROCHE) for chemokine analyses. BM cells were suspended in PBS and splenocytes were also collected in PBS by crushing spleen on a 70 μm filter. Before hemolysis, cells were stained with Ter119 (TER-119) and CD71 (C2) antibodies for the examination of erythroid compartments. The rest of cells were hemolyzed and stained for analyses of granulocytes, hematopoictic progenitor cells (HPCs) and hematopoietic stem cells (HSCs) by using antibodies against CD45.1 (A20), CD45.2 (104), CD11b (M1/70), Gr-1 (RB6-8C5), c-Kit (2B6), Sca-1 (D7 or E13-161.7), CD34 (RAM34 or MEC14.7), CD16/32 (93), CD48 (HM48-1) and CD150 (TC15-12F12.2). […] For cell cycle analyses, stained HSPCs were permeabilized with Cytofix/Cytoperm buffer following manufacturer's instructions (BD Biosciences) and labelled with anti-Ki67 antibody (SolA15) and Hoechst 33342. All antibodies were purchased from BioLegend, eBioscience, or BD Biosciences. Flow cytometry analyses were performed through FACS Canto II (BD Biosciences) and LSR II (BD Biosciences), and cell sorting was conducted by using FACS Aria II (BD Biosciences). Analyses were performed with the FlowJo software (TRISTAR) and illustrated with the Prism7 software (GraphPad).
Pharmacologic treatment. Furosemide was purchased from Sigma (MKCF8657), dissolved in DMSO for stock solution (50 mg/mL) and diluted in PBS solution prior to use. […] Spironolactone (SIGMA) was prepared in water bottles at 250 mg/Kg to treat recipient mice as described (Rafael-Fortney et al., Early treatment with lisinopril and spironolactone preserves cardiac and skeletal muscle in duchenne muscular dystrophy mice »; Circulation, 2011; 124:582-8). Acetozolamide was purchased from SIGMA (A6011), dissolved in PBS and solubilized with NaOH (35%) until complete dissolution of the product.

[2] = tested on: ICN1 leukemic cells; test: ICN1 leukemia in vivo survival; parameters: species or system mouse
Protocol: ICN1 leukemia. Non-conditioned C57BL/6J (CD45.2) recipient mice were intravenously transplanted with 1.5×10^4 ICN1 leukemic cells in 100 uL of PBS. Seven days after transplantation, when blast cells are detected in the peripheral blood, recipient mice were daily treated or not by intravenous injection of furosemide at 20 mg/Kg.

[3] = tested on: CD34^+ cells from PV patients; test: BFU-E from CD34+ cells of PV patients treated with furosemide; assay type: cell-based, human; conditions: 5 and 20 μg/mL of furosemide, 100% = absence of furosemide
Protocol: FIG. 9: CA1 protein expression and furosemide treatment of CD34^+ cells from PV patients. (A) CA1 protein expression in human CD34^+ cells from control and JAK2^V617F PV patients (left) (n=4) and (B) CA1 expression level normalized against GAPDH expression level (right). (C) Effects of 5 and 20 μg/mL of furosemide on the percentages of BFU-E from CD34^+ cells of PV patients (n=4). 100% is used as percentage of BFU-E in the absence of furosemide (N.T.). N) Relative percentage of JAK2^V617F Variant Allele Frequency (VAF) in the BFU-E after treatment with 5 and 20 ug/mL of furosemide. 100% is used as percentage of VAF in the BFU-E in the absence of furosemide (N.T.). Data are mean +/−s.e.m. Significance was assessed using unpaired 2-tailed t test and two way ANOVA followed by post-hoc analysis (*<0.05, **<0.01, ***<0.001, ****<0.0001).
Whole-transcriptome RNA-seq on CD34+ cell from Patients. The patients were selected for their high JAK2^V617F variant allele frequency (from 60 to 100% VAF). […] The RNA integrity (RNA Integrity Score>7.0) was checked on the Agilent 2100 Bioanalyzer (Agilent) and quantity was determined using Qubit (Invitrogen). […]

Row | Compound | PV associated symptoms ([1]; spironolactone 250 mg/Kg in water bottles, starting 2 weeks after transplantation) | survival of mice with PV ([1]; spironolactone 250 mg/Kg in water bottles, starting 2 weeks after transplantation (FIG. 5d)) | survival rate ([2]; furosemide 20 mg/Kg daily intravenous, starting 1 week after transplantation of 1.5×10^4 ICN1 leukemic cells (FIG. 7)) | in vivo leukemia progression ([2]; furosemide daily, starting 1 week after transplantation (FIG. 7)) | JAK2^V617F variant allele frequency in the BFU-E [3] | percentages of BFU-E ([3]; n=4) | therapeutic effect (blood chimerism, spleen weight) ([1]; furosemide 5 mg/Kg daily, starting two weeks after transplantation, compared with 20 mg/Kg (FIG. 8)) | survival rate ([1]; furosemide 20 mg/Kg daily intravenous, starting 2 weeks after transplantation (FIG. 4i)) | JAK2^V617F cell burden in blood ([1]; furosemide 20 mg/Kg daily intravenous, starting 2 weeks after transplantation of JAK2^V617F BM cells (FIG. 4g)) | spleen weight ([1]; furosemide 20 mg/Kg daily intravenous, starting 2 weeks after transplantation, 8 weeks later (FIG. 4h)) | PV blood parameters ([1]; furosemide 20 mg/Kg daily intravenous, starting 2 weeks after transplantation, hematocrit and red blood cells count) | JAK2^V617F LT-HSC contribution to the LT-HSC compartment ([1]; furosemide after PV establishment, before treatment (10 weeks) vs end of treatment (31 weeks) (FIG. 4m)) | survival ([1]; furosemide daily after PV establishment, starting 10 weeks after transplantation) | blood JAK2^V617F cell burden ([1]; furosemide daily after PV establishment, starting 10 weeks after transplantation (FIG. 4j)) | hematocrit ([1]; furosemide daily after PV establishment, starting 10 weeks after transplantation (FIG. 4k)) | spleen weight ([1]; furosemide daily after PV establishment, starting 10 weeks after transplantation (FIG. 4l))
1 | CC(=O)S[C@@H]1CC2=CC(=O)CC[C@]2(C)[C@H]2CC[C@@]3(C)[C@@H](CC[C@@]34CCC(=O)O4)[C@H]12 [Spironolactone] | no effect | no effect | – | – | – | – | – | – | – | – | – | – | – | – | – | –
2 | NS(=O)(=O)c1cc(C(=O)O)c(NCc2ccco2)cc1Cl [Furosemide, 4-chloro-2-(furan-2-ylmethylamino)-5-sulfamoylbenzoic acid] | – | – | improved survival rate is also reproduced | Slowing | decreased | decreased | therapeutic effect similar to the one obtained with 20 mg/Kg | improved | decreased | decreased | decreased | significant decrease | survival of the treated mice | rapid, stable and Furosemide-dependent decrease | decreased | decreased
